Measurements: patent publication US9938279B2, “Method for treating disease or condition susceptible to amelioration by AMPK activators and compounds of formula which are useful to activate AMP-activated protein kinase (AMPK)” (ENERGENESIS BIOMEDICAL CO., LTD, priority 2013, dated 2018)

How the values were obtained:
AMPK [1] = test: AMPK activation assay (western blot phospho-AMPK Thr172) in Hep G2; type: cell-based, human; details: Hep G2 cells, 30 min treatment
Procedure: (§1) Effects of compounds on AMPK activation were analyzed in mouse muscle cell C2C12, mouse fibroblast 3T3-L1 and human hepatocyte Hep G2. Those cell lines were cultured in high-glucose Dulbecco's modified Eagle's medium (DMEM) containing 10% fetal bovine serum (FBS), 4 mM L-glutamine, 2 mM sodium pyruvate and 1% penicillin/streptomycin (Invitrogen GibcoBRL, Carlsbad, Calif., USA) at 37° C. under 5% CO2. Cells were plated at 3×10^5 per well (6-well plate). 24 h after plating, cells were treated with indicated compounds for 30 min followed by cell lysis and western blot analysis. Equal amount of protein were separated by SDS-PAGE and then electroblotted on to PVDF membranes. Membranes were blocked with 3% BSA in PBS for 60 min and incubated with anti-phospho-AMPK (Thr172) antibody (1:2,000, Cell signaling), anti-AMPK antibody (1:2,000, Cell signaling), anti-Glut4 antibody (1:1,000, Millipore) or anti-actin antibody (1:5,000; Chemicon International) at 4° C. overnight followed by the corresponding secondary antibody for 1 h at room temperature (RT). Immunoreactive bands were detected by enhanced chemiluminescence (ECL; Pierce, Rockford, Ill., USA) and recorded using Kodakfilm (Rochester, N.Y., USA). The detected signals were scanned and then quantified by using TotalLab Quant software (TotalLab).

AMPK [2] = test: AMPK activation assay (western blot phospho-AMPK Thr172) in 3T3-L1; type: cell-based, mouse; details: 3T3-L1 cells, 30 min treatment
Procedure: as §1

AMPK [3] = test: AMPK activation assay (western blot phospho-AMPK Thr172) in C2C12; type: cell-based, mouse; details: C2C12 cells, 30 min treatment
Procedure: as §1

Structure (SMILES) | AMPK activation (% to control) Hep G2 (AMPK [1]; 1 microM) | AMPK activation (% to control) Hep G2 (AMPK [1]; 10 microM) | AMPK activation (% to control) Hep G2 (AMPK [1]; 100 microM) | AMPK activation (% to control) Hep G2 (AMPK [1]; 200 microM) | AMPK activation (% to control) 3T3-L1 (AMPK [2]; 1 microM) | AMPK activation (% to control) 3T3-L1 (AMPK [2]; 10 microM) | AMPK activation (% to control) 3T3-L1 (AMPK [2]; 100 microM) | AMPK activation (% to control) 3T3-L1 (AMPK [2]; 200 microM) | AMPK activation (% to control) C2C12 (AMPK [3]; 1 microM) | AMPK activation (% to control) C2C12 (AMPK [3]; 10 microM) | AMPK activation (% to control) C2C12 (AMPK [3]; 100 microM) | AMPK activation (% to control) C2C12 (AMPK [3]; 200 microM)
Nc1nc(N)c2[nH]cnc2n1 [2,6-diaminopurine] | 113 % to control | 155 % to control | 274 % to control | 397 % to control | 108 % to control | 149 % to control | 288 % to control | 335 % to control | 116 % to control | 181 % to control | 281 % to control | 381 % to control
Oc1nc(O)c2[nH]cnc2n1 [2,6-dihydroxypurine] | 114 % to control | 139 % to control | 198 % to control | 302 % to control | 109 % to control | 132 % to control | 205 % to control | 361 % to control | 105 % to control | 115 % to control | 231 % to control | 347 % to control
Sc1nc(S)c2[nH]cnc2n1 [2,6-dimercaptopurine] | 110 % to control | 133 % to control | 244 % to control | 366 % to control | 102 % to control | 98 % to control | 178 % to control | 260 % to control | 104 % to control | 117 % to control | 215 % to control | 298 % to control
COc1cccc(CNc2nc(N)nc3nc[nH]c23)c1OC [2-amino-6-(2,3-dimethoxybenzylamino)purine] | 115 % to control | 127 % to control | 229 % to control | 318 % to control | 118 % to control | 156 % to control | 250 % to control | 347 % to control | 106 % to control | 144 % to control | 263 % to control | 334 % to control
COc1cc(CNc2nc(C)nc3nc[nH]c23)cc(OC)c1OC [2-methyl-6-(3,4,5-trimethoxybenzylamino)purine] | 112 % to control | 168 % to control | 270 % to control | 359 % to control | 115 % to control | 141 % to control | 254 % to control | 346 % to control | 106 % to control | 117 % to control | 211 % to control | 361 % to control
O=C1CCNC(=O)N1 [5,6-dihydrouracil] | 120 % to control | 167 % to control | 274 % to control | 360 % to control | 116 % to control | 159 % to control | 268 % to control | 341 % to control | 108 % to control | 114 % to control | 207 % to control | 326 % to control
Clc1cccc(Nc2ncnc3nc[nH]c23)c1 [6-(3-chloroanilino)purine] | 106 % to control | 109 % to control | 212 % to control | 319 % to control | 116 % to control | 130 % to control | 217 % to control | 301 % to control | 108 % to control | 118 % to control | 186 % to control | 307 % to control
Nc1cc[nH]c(=O)n1 [Cytosine] | 117 % to control | 164 % to control | 281 % to control | 359 % to control | 117 % to control | 127 % to control | – | 310 % to control | 119 % to control | 158 % to control | 253 % to control | 361 % to control
CN(C)c1nc(O)c2[nH]cnc2n1 [Example 2-Dimethylamino-6-hydroxypurine, 2-Dimethylamino-6-hydroxypurine] | 117 % to control | 132 % to control | 185 % to control | 218 % to control | 106 % to control | 108 % to control | 205 % to control | 264 % to control | 105 % to control | 111 % to control | 229 % to control | 298 % to control
CC(C)CCNc1nc(N)nc2nc[nH]c12 [Example 2-amino-6-isopentylaminopurine, 2-amino-6-isopentylaminopurine] | 117 % to control | 174 % to control | 250 % to control | 341 % to control | 110 % to control | 169 % to control | 271 % to control | 361 % to control | 104 % to control | 114 % to control | 238 % to control | 305 % to control
